ChEMBL document CHEMBL1129902, “Bioactivatable derivatives of 8-substituted cAMP-analogues” (Bioorg Med Chem Lett, 1997)

How the values were obtained:
[1] = target: cAMP-dependent protein kinase (PKA) (Homo sapiens, UniProt P22694+P17612+P22612); assay: Activation of cAMP dependent protein kinase (PKA); format: functional
[2] = Lipophilicity relative to cAMP (log Kw=1); format: physicochemical

Structure (SMILES)	EC50 [1] [µM]	Log Kw [2]
Nc1ncnc2c1nc(Sc1ccc(Cl)cc1)n2[C@@H]1O[C@@H]2COP(=O)(O)O[C@H]2[C@H]1O	20	
CC(=O)OCOP1(=O)OC[C@@H]2O[C@@H](n3c(NCCO)nc4c(N)ncnc43)[C@H](O)[C@@H]2O1 (some centres not stated)		> 2
CC(=O)OCOP1(=O)OC[C@@H]2O[C@@H](n3c(Br)nc4c(N)ncnc43)[C@H](O)[C@@H]2O1 (some centres not stated)		> 2
CC(=O)OCOP1(=O)OC[C@@H]2O[C@@H](n3c(N4CCCCC4)nc4c(N)ncnc43)[C@H](O)[C@@H]2O1 (some centres not stated)	10	> 3.5
CC(=O)OCOP1(=O)OC[C@@H]2O[C@@H](n3c(Sc4ccc(Cl)cc4)nc4c(N)ncnc43)[C@H](O)[C@@H]2O1 (some centres not stated)	0.15	> 4
